Measured values reported in patent publication US5800838A, “Composition that inhibits or destroys at least one unicellular living organism containing fluorine F- and Lithium li+” (priority 1987, dated 1998).
Read-outs that look alike come from different tables or passages of the source.

Assays:
Group C streptococcus = assay: Activity on wild-type hospital strains responsible for skin infections; assay type: cell-based; conditions: for MIC: Streptococcus
Escherichia coli = assay: as above; assay type: cell-based; conditions: for MIC: Escherichia coli, read-out: 100% inhibitory concentration
staphylococcus aeurus = assay type: cell-based; conditions: Fli 4 ppm
Method: (§1) Strains Gram+ and Gram- (wild-type hospital) having a resistant phenotype vis a vis standard firstly and secondly used antibiotherapy were experimented on activated antibiotics.
(§2) 250 experiments were conducted on the following strains: Streptococcus group B, C, D, F, G, Staphylococcus aureus, Staphylococcus epidermitis, Klebsiella pneumoniae, Klebsiella spirochete, Klebsiella oxytoca, Proteus mirabilis, Serratia marcescens, Escherichia coli, Citrobacter freundii, Enterobacter cloacae, Enterobacter calcoaceticus, Salmonella spirochete, Salmonella typhimurium, Pseudomonas aeruginosa, Haemophilus influenzae, Haemophilus sphrophilus, Acinetobacter calcoaeticus. […]

Pseudomonas aeruginosa = assay: MIC of doxycycline (Example 32); assay type: cell-based; conditions: alone, or with FNa 8 ppm / Fli 8 ppm
Description: The MIC of doxycycline was studied on pseudomonas aeruginosa (wild-type hospital strain) in the same conditions as for example 31.

[1] = system: Escherichia coli ATCC 25922; assay: Antibiotic activity of patient's blood after administration, inhibition holes methodology; assay type: in vivo
Description: The efficiency in vivo of the administration of doxycycline in presence of Fli has been measured and compared with the efficiency of the administration of doxycycline alone.
The antibiotic composition (doxycycline alone or with Fli) has been administered to a healthy patient, and the antibiotic activity of the patient's blood has been determined before the first administration, the day of the administration, and three days later. The delay of three days is necessary because of the low solubility of Fli: the pertinent concentration of Fli is only obtained after the end of the second day after its administration.
The patient had taken the antibiotic during the three days, 2 capsules of 250 mg each day at 8 a.m. A blood sample was taken 3 hours after each administration.
And the antibiotic activity was twice determined by a microbiological titration using the inhibition holes methodology on a standard strain ATCC 25922 of Escherichia coli.
Holes of […] diameter were made on a Mueller Hinton agar and 100 μl of plasma were injected in each hole. The agar was then seeded with an inoculum of Escherichia coli of […].
After an incubation of 24 hours at 37° C., the diameters around each holes (in which the strain was killed) were read.
In the first trial, the capsules of 250 mg were constituted of 110 mg of doxycycline chlorhydrate and of lactose.
The second trial was conducted similarly with gelules of 250 mg constituted of 110 mg of doxycycline, 53 mg of Fli and lactose.

Staphylococcus aureus = assay: Activity on wild-type hospital strains responsible for skin infections; assay type: cell-based
streptococcus group F = assay: Phenotype of resistant wild-type hospital strains with activated antibiotics (Example 35); assay type: cell-based; conditions: Fli 4 ppm
Method: as §1, §2

For `CC[C@H]1OC(=O)[C@H](C)[C@@H](O[C@H]2C[C@@](C)(OC)[C@@H](O)[C@H](C)O2)[C@H](C)[C@@H](O[C@@H]2O[C@H](C)C[C@H](N(C)C)[C@H]2O)[C@](C)(O)C[C@@H](C)C(=O)[C@H](C)[C@@H](O)[C@]1(C)O` [ERYTHROMYCIN, erythromycin], the MIC (Group C streptococcus; read-out: 100% inhibitory concentration, alone) was greater than 0.25 µg/mL, the MIC (Group C streptococcus; read-out: 100% inhibitory concentration, in the presence of LiF 4 ppm) was 0.125 µg/mL and the MIC (Escherichia coli; alone) was greater than 64 µg/mL. The MIC (Escherichia coli; in the presence of LiF 8 ppm) was 32 µg/mL and the “phenotype in presence of Fli” value (staphylococcus aeurus) was “the resistant phenotype was not changed”.

In the case of `C[C@H]1c2cccc(O)c2C(=O)C2=C(O)[C@]3(O)C(=O)C(C(N)=O)=C(O)[C@@H](N(C)C)[C@@H]3[C@@H](O)[C@@H]21` [DOXYCYCLINE, doxycycline], the MIC (Pseudomonas aeruginosa) is reported as 1000 µg/mL, the inhibition diameter ([1]; J0, day before the first administration, healthy patient, plasma) is reported as 7 mm and the inhibition diameter ([1]; J1, day of the first administration, 2 capsules each day, blood 3 hours after administration) is reported as 8-9 mm. For the same molecule, the inhibition diameter ([1]; J3, third day of administration, 2 capsules each day, blood 3 hours after administration) was 11-12 mm.

POLYMIXIN B gave a 100% inhibitory concentration (Group C streptococcus; alone) greater than 128 ppm, a 100% inhibitory concentration (Group C streptococcus; in the presence of LiF 8 ppm) of 64 ppm and a 100% inhibitory concentration (Escherichia coli; alone) greater than 128 ppm. The 100% inhibitory concentration (Escherichia coli; in the presence of LiF 2 ppm) was 64 ppm, the 100% inhibitory concentration (Staphylococcus aureus; alone) was greater than 128 ppm and the 100% inhibitory concentration (Staphylococcus aureus; in the presence of LiF 2 ppm) was 64 ppm.

For `CC1(C)S[C@@H]2[C@H](NC(=O)Cc3ccccc3)C(=O)N2[C@H]1C(=O)O` [penicilline group G], the “phenotype in presence of Fli” value (streptococcus group F) was “the insensible phenotype was not changed”.
